Paper PMC6909574, “The in vivo impact of MsLAC1, a Miscanthus laccase isoform, on lignification and lignin composition contrasts with its in vitro substrate preference” (BMC Plant Biology, 2019)

Biological target: T1, MsLAC1 (Miscanthus sinensis, UniProt A0A5B8YT74)
T1 construct: recombinant, secreted from Pichia pastoris X33 (pPICZalphaA, alpha-factor, MYC and HIS tags)
T1 sequence (A0A5B8YT74 32-583): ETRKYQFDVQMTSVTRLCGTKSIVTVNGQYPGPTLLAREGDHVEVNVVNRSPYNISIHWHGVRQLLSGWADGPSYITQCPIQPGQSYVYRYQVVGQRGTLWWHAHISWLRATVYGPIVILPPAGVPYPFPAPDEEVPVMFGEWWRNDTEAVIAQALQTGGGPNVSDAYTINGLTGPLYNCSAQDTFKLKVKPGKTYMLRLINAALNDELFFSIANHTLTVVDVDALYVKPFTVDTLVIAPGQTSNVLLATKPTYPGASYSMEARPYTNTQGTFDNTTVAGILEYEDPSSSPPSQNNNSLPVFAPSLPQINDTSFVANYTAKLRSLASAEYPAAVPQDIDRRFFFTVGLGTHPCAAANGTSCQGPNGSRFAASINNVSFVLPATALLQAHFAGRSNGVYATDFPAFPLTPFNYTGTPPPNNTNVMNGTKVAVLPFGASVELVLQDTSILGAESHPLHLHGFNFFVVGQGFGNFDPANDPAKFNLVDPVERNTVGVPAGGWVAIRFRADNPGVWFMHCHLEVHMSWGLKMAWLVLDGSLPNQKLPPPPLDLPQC
Assay: UV-Vis spectra over time ([…]-650 nm)
Format: biochemical
Details: 0.5 mM substrate, 0.02 U enzyme, 50 mM sodium acetate pH 5.0, 30 °C

In the case of `COc1cc(/C=C/CO)ccc1O` [coniferyl alcohol], the “UV-Vis spectra over time (250-650 nm)” value is reported as “recombinant MsLAC1 enzyme was able to oxidize all supplemented monolignols”.
